Assays:
HBV in 2.2.15 cells = experiment: 2.2.15 cells: viral product in cell lysates quantified via quantitative real time PCR; assay type: cell-based, hepatitis B virus (HBV); details: Hepatitis B virus, 120 h, day 5 post treatment, 50% reduction of viral product vs no drug controls, readout (qPCR, HBsAg or HBeAg) not specified for the column
How it was run: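 HBV product was measured at day 5 by lysate qPCR or by supernatant HBsAg/HBeAg ELISA, in 2.2.15 cells seeded at 35,000/well and exposed to 5-fold compound dilution series (0.5% DMSO). EC50 is 50% reduction of viral product relative to untreated controls.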

[1] = Compound induced cellular toxicity in HepG2 cells, ATPlite 1Step; assay type: cell-based; details: human, three days exposure, 50% reduction of total ATP vs no drug controls
Method: At day 3, post seeding cells are treated with ATPlite 1Step according to the manufacturer's instructions.

CC(C)(C)[C@@H]1Cn2nc(-c3ccccc3OC3CCCC3)cc2-c2cc(=O)c(C(=O)O)cn21 [Example 76, (R)-6-(tert-butyl)-2-(2-(cyclopentyloxy)phenyl)-10-oxo-5,6-dihydro-10H-pyrazolo[1,5-a]pyrido[2,2-c]pyrazine-12-carboxylic acid]
EC50 (HBV in 2.2.15 cells): < 100 nM
CC50 at 3 days [1]: > 25000 nM

CC(C)(C)[C@@H]1Cn2nc(-c3ccc(F)c(F)c3)cc2-c2cc(=O)c(C(=O)O)cn21 [Example 60, (R)-6-(tert-butyl)-2-(3,4-difluorophenyl)-10-oxo-5,6-dihydro-10H-pyrazolo[1,5-a]pyrido[2,2-c]pyrazine-12-carboxylic acid]
EC50 (HBV in 2.2.15 cells): < 100 nM
CC50 at 3 days [1]: > 25000 nM

C[C@@H]1Cn2nc(-c3ccccc3)c(-c3ccccc3)c2-c2cc(=O)c(C(=O)O)cn21 [Example 203, (R)-6-methyl-10-oxo-1,2-diphenyl-5,6-dihydro-10H-pyrazolo[1,5-a]pyrido[2,1-c]pyrazine-9-carboxylic acid]
EC50 (HBV in 2.2.15 cells): < 100 nM
CC50 at 3 days [1]: > 25000 nM

CC(C)(C)[C@@H]1Cn2nc(-c3cccc(F)c3F)cc2-c2cc(=O)c(C(=O)O)cn21 [Example 30, (R)-6-(tert-butyl)-2-(2,3-difluorophenyl)-10-oxo-5,6-dihydro-10H-pyrazolo[1,5-a]pyrido[2,2-c]pyrazine-12-carboxylic acid]
EC50 (HBV in 2.2.15 cells): < 100 nM
CC50 at 3 days [1]: > 25000 nM

CCOc1ccccc1-c1cc2n(n1)C[C@@H](C(C)(C)C)n1cc(C(=O)O)c(=O)cc1-2 [Example 48, (R)-6-(tert-butyl)-2-(2-ethoxyphenyl)-10-oxo-5,6-dihydro-10H-pyrazolo[1,5-a]pyrido[2,2-c]pyrazine-12-carboxylic acid]
EC50 (HBV in 2.2.15 cells): < 100 nM
CC50 at 3 days [1]: > 25000 nM

CC(C)(C)[C@@H]1Cn2nc(-c3cccc4ccoc34)cc2-c2cc(=O)c(C(=O)O)cn21 [Example 27, (R)-2-(benzofuran-7-yl)-6-(tert-butyl)-10-oxo-5,6-dihydro-10H-pyrazolo[1,5-a]pyrido[2,2-c]pyrazine-12-carboxylic acid]
EC50 (HBV in 2.2.15 cells): < 100 nM
CC50 at 3 days [1]: > 25000 nM

COc1ccc(OCc2ccccc2)cc1-c1cc2n(n1)C[C@@H](C(C)(C)C)n1cc(C(=O)O)c(=O)cc1-2 [Example 36, (R)-2-(5-(benzyloxy)-2-methoxyphenyl)-6-(tert-butyl)-10-oxo-5,6-dihydro-10H-pyrazolo[1,5-a]pyrido[2,2-c]pyrazine-12-carboxylic acid]
EC50 (HBV in 2.2.15 cells): < 100 nM
CC50 at 3 days [1]: > 25000 nM

COc1ccc(-c2cc3n(n2)C[C@@H](C(C)(C)C)n2cc(C(=O)O)c(=O)cc2-3)cc1 [Example 10, (R)-6-(tert-butyl)-2-(4-methoxyphenyl)-10-oxo-5,6-dihydro-10H-pyrazolo[1,5-a]pyrido[2,2-c]pyrazine-12-carboxylic acid]
EC50 (HBV in 2.2.15 cells): < 100 nM
CC50 at 3 days [1]: > 25000 nM

CC(C)(C)[C@@H]1Cn2nc(-c3cccc4scnc34)cc2-c2cc(=O)c(C(=O)O)cn21 [Example 31, (R)-2-(benzo[d]thiazol-4-yl)-6-(tert-butyl)-10-oxo-5,6-dihydro-10H-pyrazolo[1,5-a]pyrido[2,2-c]pyrazine-12-carboxylic acid]
EC50 (HBV in 2.2.15 cells): < 100 nM
CC50 at 3 days [1]: > 25000 nM

Cc1ccc(-c2cc3n(n2)C[C@@H](C(C)(C)C)n2cc(C(=O)O)c(=O)cc2-3)cc1 [Example 20, (R)-6-(tert-butyl)-10-oxo-2-(p-tolyl)-5,6-dihydro-10H-pyrazolo[1,5-a]pyrido[2,2-c]pyrazine-12-carboxylic acid]
EC50 (HBV in 2.2.15 cells): < 100 nM
CC50 at 3 days [1]: > 25000 nM

COc1ccc(OC(F)(F)F)c(-c2cc3n(n2)C[C@@H](C(C)(C)C)n2cc(C(=O)O)c(=O)cc2-3)c1 [Example 34, (R)-6-(tert-butyl)-2-(5-methoxy-2-(trifluoromethoxy)phenyl)-10-oxo-5,6-dihydro-10H-pyrazolo[1,5-a]pyrido[2,2-c]pyrazine-12-carboxylic acid]
EC50 (HBV in 2.2.15 cells): < 100 nM
CC50 at 3 days [1]: > 25000 nM

CC(C)(C)[C@@H]1Cn2nc(-c3cccc4c3sc3ccccc34)cc2-c2cc(=O)c(C(=O)O)cn21 [Example 70, (R)-6-(tert-butyl)-2-(dibenzo[b,d]thiophen-4-yl)-10-oxo-5,6-dihydro-10H-pyrazolo[1,5-a]pyrido[2,2-c]pyrazine-12-carboxylic acid]
EC50 (HBV in 2.2.15 cells): 200 to 1000 nM
CC50 at 3 days [1]: > 25000 nM

COc1ccc(O)c(-c2cc3n(n2)C[C@@H](C(C)(C)C)n2cc(C(=O)O)c(=O)cc2-3)c1 [Example 56, (R)-6-(tert-butyl)-2-(2-hydroxy-5-methoxyphenyl)-10-oxo-5,6-dihydro-10H-pyrazolo[1,5-a]pyrido[2,2-c]pyrazine-12-carboxylic acid]
EC50 (HBV in 2.2.15 cells): < 100 nM
CC50 at 3 days [1]: > 25000 nM

Cc1ccc(-c2c(C3CC3)nn3c2-c2cc(=O)c(C(=O)O)cn2[C@H](C(C)(C)C)C3)cc1 [Example 154, (R)-6-(tert-butyl)-2-cyclopropyl-10-oxo-1-(p-tolyl)-5,6-dihydro-10H-pyrazolo[1,5-a]pyrido[2,1-c]pyrazine-9-carboxylic acid]
EC50 (HBV in 2.2.15 cells): < 100 nM
CC50 at 3 days [1]: > 25000 nM

Cn1cc(-c2cc3n(n2)C[C@@H](C(C)(C)C)n2cc(C(=O)O)c(=O)cc2-3)cn1 [Example 5, (R)-6-(tert-butyl)-2-(2-methyl-1H-pyrazol-4-yl)-10-oxo-5,6-dihydro-10H-pyrazolo[1,5-a]pyrido[2,2-c]pyrazine-12-carboxylic acid]
EC50 (HBV in 2.2.15 cells): < 100 nM
CC50 at 3 days [1]: > 25000 nM

CC(C)(C)[C@@H]1Cn2nc(C3CC3)c(-c3ccco3)c2-c2cc(=O)c(C(=O)O)cn21 [Example 159, (R)-6-(tert-butyl)-2-cyclopropyl-1-(furan-2-yl)-10-oxo-5,6-dihydro-10H-pyrazolo[1,5-a]pyrido[2,1-c]pyrazine-9-carboxylic acid]
EC50 (HBV in 2.2.15 cells): < 100 nM
CC50 at 3 days [1]: > 25000 nM

CC(C)(C)[C@@H]1Cn2nc(-c3ccccc3CO)cc2-c2cc(=O)c(C(=O)O)cn21 [Example 84, (R)-6-(tert-butyl)-2-(2-(hydroxymethyl)phenyl)-10-oxo-5,6-dihydro-10H-pyrazolo[1,5-a]pyrido[2,2-c]pyrazine-12-carboxylic acid]
EC50 (HBV in 2.2.15 cells): 200 to 1000 nM
CC50 at 3 days [1]: > 25000 nM

CC(C)(C)[C@@H]1Cn2nc(-c3ccc(F)nc3)cc2-c2cc(=O)c(C(=O)O)cn21 [Example 38, (R)-6-(tert-butyl)-2-(6-fluoropyridin-3-yl)-10-oxo-5,6-dihydro-10H-pyrazolo[1,5-a]pyrido[2,2-c]pyrazine-12-carboxylic acid]
EC50 (HBV in 2.2.15 cells): < 100 nM
CC50 at 3 days [1]: > 25000 nM

COc1cccc(F)c1-c1cc2n(n1)C[C@@H](C(C)(C)C)n1cc(C(=O)O)c(=O)cc1-2 [Example 50, (R)-6-(tert-butyl)-2-(2-fluoro-6-methoxyphenyl)-10-oxo-5,6-dihydro-10H-pyrazolo[1,5-a]pyrido[2,2-c]pyrazine-12-carboxylic acid]
EC50 (HBV in 2.2.15 cells): 200 to 1000 nM
CC50 at 3 days [1]: > 25000 nM

Cc1cccc(-c2cnn3c2-c2cc(=O)c(C(=O)O)cn2[C@H](C(C)(C)C)C3)c1 [Example 125, (R)-6-(tert-butyl)-10-oxo-1-(m-tolyl)-5,6-dihydro-10H-pyrazolo[1,5-a]pyrido[2,1-c]pyrazine-9-carboxylic acid]
EC50 (HBV in 2.2.15 cells): < 100 nM
CC50 at 3 days [1]: > 25000 nM

CC(C)(C)[C@@H]1Cn2ncc(-c3c(F)ccc4c3OCO4)c2-c2cc(=O)c(C(=O)O)cn21 [Example 123, (R)-6-(tert-butyl)-1-(5-fluorobenzo[d][1,3]dioxol-4-yl)-10-oxo-5,6-dihydro-10H-pyrazolo[1,5-a]pyrido[2,1-c]pyrazine-9-carboxylic acid]
EC50 (HBV in 2.2.15 cells): < 100 nM
CC50 at 3 days [1]: > 25000 nM
